The source of these data is ChEMBL document CHEMBL1145368, “Directed molecular screening for RecA ATPase inhibitors” (Bioorg Med Chem Lett, 2007).

For test [1], the system named is Escherichia coli. Briefly: (§1) Inhibition of Escherichia coli RecA by ADP-linked fluorescent ATPase assay.
The test system of test [2] is Escherichia coli. As to the kind of experiment: Inhibition of RecA-mediated DNA strand exchange reaction assessed as abrogation of nicked circular dsDNA formation at 100 uM.
Test [3] can be described thus: as §1.

SMILES strings stand for the structures. Active and inactive are the calls of the source. The rule behind the calls is not given here.

In the case of `COc1cc(/C=C/C(=O)CC(=O)/C=C/c2ccc(O)c(OC)c2)ccc1O`, in test [1], the result was inactive.

For the molecule `Cc1ccc(C(=O)Nc2ccc(S(=O)(=O)O)c3cc(S(=O)(=O)O)cc(S(=O)(=O)O)c23)cc1NC(=O)c1cccc(NC(=O)Nc2cccc(C(=O)Nc3cc(C(=O)Nc4ccc(S(=O)(=O)O)c5cc(S(=O)(=O)O)cc(S(=O)(=O)O)c45)ccc3C)c2)c1` [SURAMIN], in test [2], the outcome was Active. 2000 nM corresponded to half-maximal inhibition in test [3] (IC50).

For the molecule `Nc1c(/N=N/c2ccc(-c3ccc(/N=N/c4cc(S(=O)(=O)O)c5ccccc5c4N)cc3)cc2)cc(S(=O)(=O)O)c2ccccc12`, the result in test [1] was Active.

Turning to `O=S(=O)(O)c1cccc2c(-c3ccc(Nc4ccccc4)c4c(S(=O)(=O)O)cccc34)ccc(Nc3ccccc3)c12`, the outcome in test [1] was Active.
